Assay results taken from patent US20160022599A1, “System and Method for Fabrication of Uniform Polymer Films Containing Nano and Micro Particles via Continuous Drying Process” (NEW JERSEY INSTITUTE OF TECHNOLOGY, priority 2013, published 2016).
Converted amounts (≈) assume the structure as drawn.

Key:
[1] = USP IV flow-through cell dissolution of films in SDS solution; type: physicochemical
Protocol: The dissolution experiments were performed by cutting out a ⅜ inch diameter sample of film and placing it into a flow-though cell dissolution apparatus (USP IV, Sotax, Switzerland) while 118 mL (5.4 mg/mL) aqueous SDS passed through cells (internal diameter of 22.6 mm) at a rate of 16 mL per minute. The amount of API dissolved from the film was measured over time until 100% of drug was released.
Dissolution experiments were performed using a flow-through cell dissolution apparatus (USP IV, Sotax, Switzerland) with cells of an internal diameter of 22.6 mm. Films were horizontally positioned in the cells with glass beads (1 mm in diameter) filling up the conical part at the bottom of each cell. Glass microfiber filters (GF/D grade, Whatman, Schenectady, N.Y., USA) were used in the filter-head. The temperature was maintained at 37±0.5° C. and a flow rate of 15 mL/min was used.
During testing, the dissolution medium (20 mM SDS solution, 100 mL) was circulated by pumping it through each cell. Six samples were used and the average drug release and the standard deviation were plotted as a function of time.
The dissolution behavior of the stripfilms made using the blend (HPMC and PVP) strip films containing GF nanoparticles was examined using a flow-through cell dissolution apparatus (USP IV, Sotax, Switzerland) with cells of an internal diameter of 22.6 mm. Six circular film samples (having an area of 0.712 cm^2) were punched out of each film and tested. For each film, six samples were horizontally positioned in the six cells with 6.5 g of glass beads (1 mm in diameter) filling up the conical part at the bottom of each cell. Pall HT Tuffryn Membrane Disc Filters (0.2 μm) were used for this study in the filter-head in each experiment. The temperature was maintained at 37±0.5° C., and a flow rate of 16 ml/min was used. During testing, a 100 ml dissolution medium (SDS solution (5.4 mg/ml)) was circulated by pumping it through each cell. […]

[2] = USP IV flow-through cell dissolution of films in deionized water; type: physicochemical; details: DI water media
Protocol: Therefore, for the present disclosure, a flow-through cell dissolution apparatus (USP 4, Sotax, Switzerland) with cells of an internal diameter of 22.6 mm was employed. Circular film samples (having an area of 0.712 cm^2) were horizontally positioned in the cells with glass beads (1 mm in diameter) filling the top and bottom of each cell. […] The temperature was maintained at 37±0.5° C. and a flow rate of 16 mL/min was used. Dissolution experiments were carried out using two different media. […] For the second case, deionized (DI) water was used as the media. Six samples were used from each film (S-S8) and the average drug release was plotted as a function of time. To better understand the effect of SDIs on rate of drug release from HPMC films, two new formulations were prepared (formulation S7 and S8). In the first case a high molecular weight HPMC (E4M, Dow chemicals) was used to prepare films loaded with GF nanoparticles. In the second a higher concentration of HPMC ([…]) was used to prepare films containing GF nanoparticles (following the same procedure stated above). The percent drug loading and film thickness were kept same as formulations S-S8 and same dissolution testing protocols were followed. The release kinetics of GF from HPMC films was determined by finding the best fit for the release profiles. […]

[3] = cited from earlier work
[4] = cited from earlier work; remark: listed apart in the source
[5] = cited from earlier work; remark: listed apart in the source
[6] = Film disintegration time in water; type: physicochemical; details: ⅝ inch diameter film in 10 ml of water; film about 16 micrometer (Example 8)
Protocol: The drying temperature was kept constant at 60° C. Casting thickness was adjusted to 200 micron thickness using a Doctor blade film applicator. The film was dried for about 30 min, and the dried film thickness was measured to be about 16 micrometer. The disintegration time of dried films was noted by placing a ⅝ inch diameter film in 10 ml of water. The time taken by the film to disintegrate completely was about 10 seconds.

[7] = Drug particle size (laser diffraction / DLS) in suspension and after re-dispersion from films; type: physicochemical; details: for d50, Tip Speed: 11.72 m/s / d50, Tip Speed: 14.66 m/s: WSMM, 100 μm media; for median size of suspension after milling of drug alone: no stabilizers
Protocol: An aliquot of the suspensions was dispersed in a 10 ml stabilizer solution and the particle size of the suspensions was measured using a Beckman Coulter LS13320 after milling. The resulting drug suspensions were mixed with a 10% w/w solution of HPMC E15LV and glycerin in a ratio of 1:1, drug suspension to polymer solution. This suspension was stirred for 3 hours with a dual-propeller mixer (McMaster, Catalog no. 3471K5, Los Angeles, Calif., USA). The particle size of the suspensions was measured after mixing with the polymer solution to check for particle growth.
The term “median size” here refers to the 50% vol. passing size of the cumulative volume distribution in LD and cumulant or z-average mean size in DLS. The griseofulvin particle size above 160 nm was measured in LD and the sizes below were measured using DLS. […] The particle size of un-milled drug suspension (in the presence of stabilizers), was also measured and referred as the 0th minute particle size.
GF nanosuspensions were produced via WSMM utilizing a Microcermill (NETZSCH, Fine particle technology LLC, Exton, Pa.) as per previously described methods and processing conditions. HPMC and SDS were chosen as stabilizers. […] At the end of milling, a sample was taken from the holding tank of the mill and dispersed into 15 mL HPMC-SDS stabilizers solution (using a pipette) and the particle size distribution of GF in the sample was then measured using laser diffraction in Coulter LS13320 (Beckman Coulter, Miami, Fla.).
The particle size distribution of GF was measured in suspensions after milling, after mixing with polymer solutions (S-S8) and from re-dispersed films using a laser diffraction technique. […] The size of SDIs (SSG, CCS and CP) was recorded for three cases: after incorporation into HPMC solution, before and after addition of GF nano-suspension and after film re-dispersion. Film re-dispersion was performed by dissolving a small piece of film (about 0.712 cm^2 in area) into 10 mL DI water followed by vortex mixing for 1 min. The same procedure was also followed for formulations S4-S8. Each experiment was performed in triplicate. […]
Particle size measurement of drug nanoparticles in suspension is described herein. To re-disperse drug particles from films, circular punches of film of about 0.71 cm^2 in area were vortex mixed in 3 mL of DI water for 3-5 minutes.
The particle size distribution of GF in the nano-suspensions was measured by laser diffraction in Coulter LS13320 (Beckman Coulter, Miami, Fla., USA). A sample of the suspension was taken at the end of milling from the holding tank of the mill. The sample was dispersed in 15 ml HPMC-SDS stabilizer solution by stirring with a pipette. The sample was added drop-wise until the polarization intensity differential scattering (PIDS) reached 40%.
The same method was used to measure the particles size of GF nanoparticles re-dispersed in water from films. […] The sample particle size was measured after 10 min of magnetic stirring.

Question: What does the source list for NC(=O)N=NC(N)=O [AZD, azodicarbonamide]?
Answer: dissolution profiles of films with vs without SDS ([1]; SDS media, similarity and difference factors): statistically similar dissolution profiles with and without SDS; dissolution profiles of films with vs without SDS [2]: statistically similar dissolution profiles with and without SDS; Solubility in water at 4° C. [3]: 35.0 µg/mL (≈ 302 µM); logP ([4]; Table 23): 5.8; pKa [5]: 3.9

Question: Which “% of GF released in 50 minutes” value ([1]; SDS solution […], FIG. 47) does the source give for COC1=CC(=O)C[C@@H](C)[C@]12Oc1c(Cl)c(OC)cc(OC)c1C2=O [as received powder, griseofulvin] here?
Answer: Its value is 40%.

Question: What does the source list for COC1=CC(=O)C[C@@H](C)[C@]12Oc1c(Cl)c(OC)cc(OC)c1C2=O [GF, griseofulvin]?
Answer: percent griseofulvin dissolved within five minutes ([1]; 0.025 M SDS, about 18 micron HPMC film, 70 nm nanoparticles (Example 8)): about 100%; disintegration time of dried film [6]: about 10 seconds; particle size stability of nanosuspension on storage ([7]; 7 days of storage): the particle size was stable after 7 days of storage; d50, Tip Speed: 11.72 m/s ([7]; time 0): 21.845 microns; d50, Tip Speed: 14.66 m/s ([7]; time 0): 21.845 microns; d50, Tip Speed: 11.72 m/s ([7]; time 4): 1.378 microns; d50, Tip Speed: 14.66 m/s ([7]; time 4): 0.479 microns; d50, Tip Speed: 11.72 m/s ([7]; time 8): 0.378 microns; d50, Tip Speed: 14.66 m/s ([7]; time 8): 0.267 microns; d50, Tip Speed: 11.72 m/s ([7]; time 16): 0.149 microns; d50, Tip Speed: 14.66 m/s ([7]; time 16): 0.134 microns; d50, Tip Speed: 11.72 m/s ([7]; time 32): 0.122 microns; d50, Tip Speed: 14.66 m/s ([7]; time 32): 0.112 microns; d50, Tip Speed: 11.72 m/s ([7]; time 64): 0.106 microns; d50, Tip Speed: 14.66 m/s ([7]; time 64): 0.087 microns; d50, Tip Speed: 11.72 m/s ([7]; time 120): 0.084 microns; d50, Tip Speed: 14.66 m/s ([7]; time 120): 0.069 microns; d50, Tip Speed: 11.72 m/s ([7]; time 180): 0.069 microns; d50, Tip Speed: 14.66 m/s ([7]; time 180): 0.061 microns; d50, Tip Speed: 11.72 m/s ([7]; time 240): 0.067 microns; d50, Tip Speed: 14.66 m/s ([7]; time 240): 0.064 microns; d50, Tip Speed: 11.72 m/s ([7]; time 300): 0.062 microns; d50, Tip Speed: 14.66 m/s ([7]; time 300): 0.059 microns; d50, Tip Speed: 11.72 m/s ([7]; time 360): 0.060 microns; d50, Tip Speed: 14.66 m/s ([7]; time 360): 0.056 microns; median size of suspension after milling of drug alone [7]: 4 um; final particle size at 360 min of milling ([7]; tip speed 11.72 m/s): 60 nm; final particle size at 360 min of milling ([7]; tip speed 14.66 m/s): 56 nm; solubility in water ([3]; as quoted): 0.7 µg/mL (≈ 1.98 µM); partition co-efficient, log P ([4]; as quoted): 1.1

Question: For COc1ccc2cc([C@H](C)C(=O)O)ccc2c1 [NPX, naproxen], which “median size of nanoparticles milled in the presence of HPMC alone” value [7] is on record?
Answer: Its value is 147 nm.

Question: What about the “median size of suspension after milling of drug alone” value [7] of the same compound?
Answer: The value was 12 um.
